Experimental data as given in patent publication US5571833A, “Tryptamine analogues, their synthesis and their use as 5-HT1 -like or 5-HT2 receptor agonists” (SmithKline Beecham plc, priority 1991, dated 1996).
Counter-ions that a name gives are not always drawn.

Columns and labels:
[1] = target: T1, rabbit basilar artery (5-HT1-like receptor) (Oryctolagus cuniculus, UniProt P49144); test: Rabbit Basilar Artery (isometric tension of isolated ring segments); format: cell-based
T1 construct: from tissue; host or cells: rabbit basilar artery, endothelium removed (ring segments)
T1 sequence (P49144 whole entry): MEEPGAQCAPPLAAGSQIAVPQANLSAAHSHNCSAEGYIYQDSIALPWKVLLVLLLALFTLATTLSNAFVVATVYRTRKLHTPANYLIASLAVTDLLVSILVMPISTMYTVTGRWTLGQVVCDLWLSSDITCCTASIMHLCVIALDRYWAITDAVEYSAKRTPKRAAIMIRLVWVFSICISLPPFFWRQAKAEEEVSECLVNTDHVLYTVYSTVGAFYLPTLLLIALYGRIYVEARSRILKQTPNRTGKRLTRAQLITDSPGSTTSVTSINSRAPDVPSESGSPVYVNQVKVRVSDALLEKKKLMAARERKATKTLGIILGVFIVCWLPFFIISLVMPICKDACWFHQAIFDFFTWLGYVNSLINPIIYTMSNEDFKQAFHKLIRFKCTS
Description: Experiments were performed in intracranial arteries from rabbit isolated basilar artery in a similar method to one described previously (Parsons and Whalley, 1989. Eur J Pharmacol 174, 189-196.).
In brief, rabbits were killed by overdose with anaesthetic (sodium pentobarbitone). The whole brain was quickly removed and immersed in ice cold modified Kreb's solution and the basilar artery removed with the aid of a dissecting microscope. The Krebs solution was of the following composition (mM) Na^+ (120); K^+ (5); Ca^2+ (2.25); Mg^2+ (0.5); Cl^- (98.5); SO4^2^- (1); EDTA (0.04), equilibrated with 95% O2 /5% CO2. The endothelium was removed by a gentle rubbing of the lumen with a fine metal wire. Arteries were then cut into ring segments (ca 4-5 mm wide) and set up for recording of isometric tension in 50 ml tissue baths in modified Krebs solution with the additional supplement of (mM); […] (20); fumarate (10); pyruvate (5); L-glutamate (5) and glucose (10). The arteries were then placed under a resting force of 3-4 mN maintained at 37° C. and the solution bubbled with 95% O2 /5% CO2.
After tests for initial reactivity with 90 mM KCl depolarising solution and for lack of acetylcholine-induced relaxation of 5-HT ([…]) precontraction, cumulative concentration-effect curves ([…]) to 5-HT were constructed in the presence of ascorbate […], cocaine […], indomethacin […], ketanserin […] and prazosin […].
Following a 45-60 min wash period, cumulative concentration-effect curves to the test compounds or 5-HT (as a time match control) were constructed in the presence of ascorbate, indomethacin, cocaine, ketanserin and prazosin.

[2] = target: T2, 5-HT1-like receptor (dog saphenous vein) (Canis lupus familiaris, UniProt P79250); test: 5-HT1-Like Receptor Screen, Dog Saphenous Vein (contraction of helicoids); format: cell-based
T2 construct: Helicoids of dog saphenous vein were set up; from tissue; host or cells: dog saphenous vein (helicoids)
T2 sequence (P79250 whole entry): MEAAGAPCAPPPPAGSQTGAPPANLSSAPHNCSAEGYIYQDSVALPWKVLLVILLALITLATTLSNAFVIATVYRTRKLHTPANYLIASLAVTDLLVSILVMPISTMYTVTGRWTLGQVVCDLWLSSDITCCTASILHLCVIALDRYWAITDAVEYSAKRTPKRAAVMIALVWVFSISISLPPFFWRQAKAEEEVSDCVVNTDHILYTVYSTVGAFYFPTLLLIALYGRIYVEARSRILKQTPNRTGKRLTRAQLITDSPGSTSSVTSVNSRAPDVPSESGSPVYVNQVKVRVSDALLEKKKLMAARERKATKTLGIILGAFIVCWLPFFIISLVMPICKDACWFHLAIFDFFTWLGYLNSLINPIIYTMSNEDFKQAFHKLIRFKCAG
Description: 5-HT1 -Like Receptor Screen
Helicoids of dog saphenous vein were set up at 37° C. in modified Krebs solution at a resting force of 10 mN. The solution also contained 1 μmol/l each of ketanserin, prazosin, atropine and mepyramine, 6 μmol/l cocaine and 200 μmol/l ascorbate. Nearly […] contractions were measured with force transducers on a polygraph. The tissues were exposed twice to 5-hydroxytryptamine (5-HT) 2 μmol/l followed by washes. A cumulative concentration-effect curve to the test compound was determined, followed by a curve to 5-HT in the presence of the highest used concentration of test compound. Contractions caused by the test compound were compared with those caused by 5-HT. The intrinsic activity of the test compound was calculated as the ratio of the maximum test compound-induced effect over the effect caused by 2 μmol/l 5-HT. The EC50 of the test compound was estimated from the corresponding effect curve. When appropriate equilibrium dissociation constants Kp were estimated by the method of Marano & Kaumann (1976, J. Pharmacol. Exp. Ther. 198, 518-525).

| Compound | EC50 [1] [nM] | EC50 [2] [nM] |
| --- | --- | --- |
| CCCOc1ccc2[nH]cc(CCN(C)C)c2c1Cl [3(i), 3-(2-Dimethylaminoethyl)-4-chloro-5-n-propyloxy-indole fumarate] | 170 to 1100 | 200 to 15000 |
| COc1ccc2[nH]cc(CCN(C)C)c2c1Cl [6(i), 3-(2-Dimethylaminoethyl)-4-chloro-5-methoxyindole fumarate] | 170 to 1100 | 200 to 15000 |
| NCCc1c[nH]c2ccc(OCc3ccccc3)c(Cl)c12 [Example 1, 3-(2-amino-ethyl)-4-chloro-5-benzyloxyindole hydrochloride] |  | 200 to 15000 |
| NCCc1c[nH]c2ccc(O)c(Cl)c12 [Example 2, 3-(2-Aminoethyl)-4-chloro-5-hydroxyindole fumarate] | 170 to 1100 | 200 to 15000 |
| CCCOc1ccc2[nH]cc(CCN)c2c1Cl [Example 3(ii), 3-(2-aminoethyl)-4-chloro-5-n-propyloxyindole fumarate] |  | 200 to 15000 |
| CN(C)CCc1c[nH]c2ccc(OCc3ccccc3)c(Cl)c12 [Example 4, 3-(2-Dimethylaminoethyl)-4-chloro-5-benzyloxyindole hydrochloride] | 170 to 1100 |  |
| CN(C)CCc1c[nH]c2ccc(O)c(Cl)c12 [Example 5, 3-(2-Dimethylaminoethyl)-4-chloro-5-hydroxyindole oxalate] | 170 to 1100 | 200 to 15000 |
| COc1ccc2[nH]cc(CCN)c2c1Cl [Example 6(ii), 3-(2-aminoethyl)-4-chloro-5-methoxyindole fumarate] |  | 200 to 15000 |
| COc1ccc2[nH]cc(CCN(C)C)c2c1Br [Example 7, 3-(2-Dimethylaminoethyl)-4-bromo-5-methoxyindole hemifumarate] |  | 200 to 15000 |
| CCCNCCc1c[nH]c2ccc(OC)c(Cl)c12 [Example 8, 3-(2-n-Propylaminoethyl)-4-chloro-5-methoxyindole fumarate] |  | 200 to 15000 |
| CNCCc1c[nH]c2ccc(OC)c(Cl)c12 [Example 9, 3-(2-Methylaminoethyl)-4-chloro-5-methoxyindole hemifumarate] |  | 200 to 15000 |
| CCCCOc1ccc2[nH]cc(CCN(C)C)c2c1Cl [Example 11, 3-(2-Dimethylaminoethyl)-4-chloro-5-n-butyloxyindole hemifumarate] | 170 to 1100 | 200 to 15000 |
| CCCOc1ccc2[nH]cc(CCNC)c2c1Cl [Example 13, 3-(2-Methylaminoethyl)-4-chloro-5-n-propoxyindole hemifumarate] |  | 200 to 15000 |
| CCCOc1ccc2[nH]cc(CCN(C)C)c2c1Br [Example 14, 3-(2-Dimethylaminoethyl)-4-bromo-5-n-propoxyindole hemifumarate] | 170 to 1100 | 200 to 15000 |
| CC(C)Oc1ccc2[nH]cc(CCN)c2c1Cl [Example 15, 3-(2-Aminoethyl)-4-chloro-5-iso-propoxyindole fumarate] |  | 200 to 15000 |
| CCCOc1ccc2[nH]cc(CCN)c2c1Br [Example 16, 3-(2-Aminoethyl)-4-bromo-5-n-propoxyindole oxalate] |  | 200 to 15000 |
| CC(C)Oc1ccc2[nH]cc(CCN(C)C)c2c1Cl [Example 17, 3-(2-Dimethylaminoethyl)-4-chloro-5-isopropoxyindole oxalate] |  | 200 to 15000 |
| CCCOc1ccc2[nH]cc(CCN)c2c1C [Example 18b, 3-(2-aminoethyl)-4-methyl-5-n-propyloxyindole oxalate] | 170 to 1100 |  |
| CCCOc1ccc2[nH]cc(CCN(C)CC)c2c1Cl [Example 19, 3-(2-(N-methyl-N-ethylamino)ethyl)-4-chloro-5-n-propyloxyindole oxalate] | 170 to 1100 |  |
| CCCOc1ccc2[nH]cc(CCN(C)C)c2c1I [Example 20, 3-(2-(Dimethylamino)ethyl)-4-iodo-5-n-propyloxy indole oxalate] | 170 to 1100 |  |
| CN(C)CCc1c[nH]c2ccc(OCC(C)(C)C)c(Cl)c12 [Example 22, 3-(2-(Dimethylamino)ethyl)-4-chloro-5-neopentyloxy indole oxalate] | 170 to 1100 |  |
